Measured values from patent publication US20240415752A1, “A personal care composition comprising vitamin K2 and hydroxystearic acid” (Conopco, Inc., d/b/a UNILEVER, priority 2021, published 2024).

Tested on: Normal human epidermal melanocytes (NHEM)
Test: Melanin inhibition rate in UVB-irradiated melanocytes
Assay type: cell-based
Conditions: for Melanin inhibition rate (% inhibition against UV): NHEM, UVB 14 mJ/cm^2 every 24 h, 72 hours treatment, active concentration (wt %) as in table, melanin normalized to relative cell viability; for Boost of efficacy of Vitamin K2 (melanin inhibition), in words: combination with Encap MK7 (0.0024%) in NHEM
Protocol: Effect of actives like 12HSA, 4-HR (4-hexyl resorcinol) and Encap MK7 (encapsulated Vitamin K2 of the MK-7 type) were tested individually and in combination. The protocol for the invitro assay is summarized below:
Normal human epidermal melanocytes (NHEM) (Biocell, Xi'an, China) were grown in melanocyte growth medium (MGM) with human melanocyte growth supplement (both from Promocell, Germany). NHEM cells were seeded at a density of 7×10^4 cells in 2 mL MGM/well in 6-well plates and incubated for 24 hours in an incubator at 37° C. with 5% CO2. When reaching 50% confluency, cells were irradiated with UVB at 14 mJ/cm^2 and after UV irradiation, media was replaced with fresh media containing test materials. Every 24 hours in the following 72 hours, the cells were irradiated with UVB again, and the treatment were refreshed.
At the end of the 72 hours incubation period, cell viability was determined using the Alamar Blue method. Briefly, cells were washed twice with phosphate buffered saline (PBS) solution. Freshly prepared 10% Alamar Blue working solution was added into each well including the blank control wells without cells. Plates were incubated for 1 hour at 37° C. in the CO2 incubator. The Alamar Blue solution was then transferred to a 96-well plate to check fluorescence intensity at Ex/Em 530 nm/590 nm using a fluorescent plate reader.
After cell viability evaluation, cells were further washed with PBS for twice and the cells were detached with 0.25% trypsin and collected with centrifugation. The cell pellet was added with a mixed solution (H2O:EtOH:Et2O=2:5:5 v/v) and the mixture was vortexed and left stand still for 30 min. Then the mixture was centrifuged at 1000 r/min for 10 min. The lower fraction was collected and further extracted with a solution containing 10% (v/v) DMSO and 1 M NaOH and incubated at 80° C. in a water bath for 40 minutes. Melanin standard solution was prepared in similarly by adding the same DMSO/NaOH mixed solution to the commercially sourced melanin and incubated at 80° C. for 40 minutes. The extracted melanin and the serially diluted melanin standard solution was then transferred to a 96-well plate and the absorbance at 405 nm was detected using a plate reader. The melanin content was calculated from the melanin standard curve. The melanin concentrations (μg/mL) were then normalized to the relative cell viability. The melanin inhibition rates were calculated using the following equation.

Row | Structure (SMILES) | Melanin inhibition rate (% inhibition against UV) [%] | Boost of efficacy of Vitamin K2 (melanin inhibition), in words
1 | CCCCCCC(O)CCCCCCCCCCC(=O)O (stereo not shown) [A, 12-hydroxystearic acid] | 25.3 | able to boost efficacy of Vitamin K2
2 | CCCCCCc1ccc(O)cc1O [C, 4-hexyl resorcinol] | 38.5 | does not do so
